Laboratory results: PubChem BioAssay (NCI)
Where “and” joins values, the source holds several entries; their conditions need not be identical. Equal entries are not always repeated.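 All cell lines were grown in 96-well plates and treated with compound for 48 hours. GI50 marks 50% less growth. TGI: total growth inhibition.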

How the values were obtained:
Test in all cases: NCI anticancer screen, dose series, 48 h
[1] = system: IGROV1 ovarian
[2] = system: CCRF-CEM leukemia
[3] = system: A498 renal
[4] = system: MDA-MB-231 breast
[5] = system: BT-549 breast
[6] = system: HCT-116 colon
[7] = system: PC-3 prostate
[8] = system: SK-MEL-2 melanoma
[9] = system: OVCAR-3 ovarian
[10] = system: NCI-H460 lung

Row | Compound | GI50 [1] | TGI [1] | GI50 [2] | TGI [2] | GI50 [3] | TGI [3] | GI50 [4] | TGI [4] | GI50 [5] | TGI [5] | GI50 [6] | TGI [6] | GI50 [7] | TGI [7] | GI50 [8] | TGI [8] | GI50 [9] | TGI [9] | GI50 [10] | TGI [10]
1 | Cc1cc(O)cc(C)c1/C=C/c1cncc(C(=O)N(C)C)c1 | > 25 µM | > 25 µM | > 25 µM | > 25 µM | > 25 µM | > 25 µM | > 25 µM | > 25 µM | > 25 µM | > 25 µM | > 25 µM | > 25 µM | > 25 µM | > 25 µM | > 25 µM | > 25 µM | > 25 µM | > 25 µM | > 25 µM | > 25 µM
2 | CCCCc1cc(O)ccc1O | 32.3 µM | > 100 µM | 2.79 µM | 60.6 µM | > 100 µM | > 100 µM | 15.1 µM | > 100 µM | 6.12 µM | > 100 µM | 15.5 µM | 28.9 µM | 10.5 µM | > 100 µM | 35.8 µM | > 100 µM | 7.84 µM | 21.8 µM | 39 µM | > 100 µM
3 | CCc1ccc(C2=C(O)C(=O)C(c3ccc(CC)cc3)=C(O)C2=O)cc1 | 1.59 µM | 3.54 µM | 1.37 µM | 5.72 µM | 1.74 µM | 5.36 µM | 2.53 µM | 11 µM | 1.76 µM | 5.62 µM | 2.24 µM | 6 µM | 2.17 µM | 7.95 µM | 1.18 µM | 3.35 µM | 1.57 µM | 3.13 µM | 2.06 µM | 5 µM
4 | Cn1cnc([N+](=O)[O-])c1Sc1ncnc2nc[nH]c12 | 9.13 µM and 12.1 µM | > 100 µM | 3.64 µM and 5.1 µM | > 100 µM | 8.55 µM and 26.1 µM | 82 µM and > 100 µM | 8.83 µM and 11.7 µM | > 100 µM | 12.2 µM and 7.26 µM | > 100 µM | 3.62 µM and 23.4 µM | > 100 µM | 25.6 µM and 45.9 µM | > 100 µM |  | > 100 µM | 2.92 µM and 3.23 µM | 75.9 µM and > 80.2 µM | 6.58 µM and 16.5 µM | > 100 µM
5 | O=[N+]([O-])/C=C\c1ccc2c(c1)OCO2 | 1.98 µM | 4.67 µM | 3.9 µM | 25 µM | 1.37 µM | 8.14 µM | 12.1 µM | 27.5 µM | 2.15 µM | 4.8 µM | 1.42 µM | 2.95 µM | 2.62 µM | 7.34 µM | 2.2 µM | 4.99 µM | 4.1 µM | 15.2 µM | 10.6 µM | 27.5 µM
6 | CCN(CC)CC(C)Nc1ccc(C)c2sc3ccccc3c(=O)c12 (configuration not stated) | 3.9 µM | 17.1 µM | 4.33 µM | 18 µM | 1.92 µM | 8.07 µM | 2.42 µM | 8.99 µM | 7.14 µM | 21 µM | 3.07 µM | 12.3 µM | 3.6 µM | 16.6 µM | 9.07 µM | 25.5 µM | 6.33 µM | 19.2 µM | 2.05 µM | 8.25 µM
7 | Nc1ccc2c(c1)[O][Sn]([c]1ccccc1)([c]1ccccc1)[O]C2=O | 12.4 µM | 29.2 µM | 1.92 µM | 7.76 µM | 18 µM | 31.9 µM | 5.11 µM | 11.6 µM | 1.98 µM | 6.4 µM | 7.97 µM | 15.7 µM | 12.4 µM | 24.9 µM | 6.19 µM | 17.6 µM | 6.79 µM | 15.9 µM | 16 µM | 33.6 µM
8 | OC1CCC(Oc2cccc3cnc(Nc4ccc5nc[nH]c5c4)nc23)CC1 (configuration not stated) | 0.287 µM | 16.6 µM | 0.282 µM | 17.3 µM | 0.335 µM | 0.866 µM | 0.389 µM | 19.8 µM | 0.22 µM | 0.906 µM | 0.191 µM | 12 µM | 0.254 µM | 20.7 µM | 0.873 µM | 2.93 µM | 0.423 µM | 19.4 µM | 0.275 µM | 11.8 µM
9 | O=C(Nc1ccc(Br)cc1)c1cc(Br)cc(Br)c1O | 3.02 µM | 15.6 µM | 3.73 µM | > 100 µM | 1.82 µM | 4.37 µM | 2.08 µM | 6.28 µM | 3.08 µM | 14.4 µM | 2.41 µM | 8.31 µM | 2.65 µM | 8.82 µM | 2.27 µM | 6.12 µM | 2.95 µM | 8 µM | 2.6 µM | 6.86 µM
10 | COc1ccc([N+](=O)[O-])c2c(NCC(O)CO)ccnc12 (configuration not stated) |  | 97.5 µM |  | > 100 µM |  | 76.9 µM |  | > 100 µM |  | 56 µM |  | > 100 µM |  | > 100 µM |  | 71.9 µM |  | 70 µM |  | 52 µM
11 | NC(N)=N/N=C/c1c(-c2cc(Cl)sc2Cl)nc2n1CCS2 | 16.4 µM | > 50 µM | 8.67 µM | 19.6 µM | 8.9 µM | 16.6 µM | 7.64 µM | 15.6 µM | 8.51 µM | 17.3 µM |  |  | 8.2 µM | 15.2 µM | 22.6 µM | > 50 µM | 8.81 µM | 17.3 µM | 25.5 µM | > 50 µM
12 | CC/C=C\C[C@H](O)C/C=C1/C(=O)C=C[C@@H]1C/C=C\CCCC(N)=O | 3.09 µM | 12.2 µM | 1.38 µM | 8.07 µM | 2.9 µM | 7.07 µM | 4.2 µM | 15.2 µM | 2.17 µM | 5.54 µM | 1.02 µM | 2.47 µM | 2.15 µM | 5.36 µM | 2.31 µM | 5.69 µM | 1.26 µM | 4.22 µM | 2.27 µM | 6.97 µM
13 | c1ccc2c(NCCCCCCCCNc3c4ccccc4nc4ccccc34)c3ccccc3nc2c1 |  | 1.8 µM |  | 2.15 µM |  | 2.68 µM |  | 1.74 µM |  | 2.76 µM |  | 1.26 µM |  | 1.67 µM |  | 2.23 µM |  | 3.22 µM |  | 1.33 µM
14 | Nc1ncnc2c1ncn2C1OC(C(=O)O)C(O)C1O (configuration not stated) |  | > 100 µM |  | > 100 µM |  | > 100 µM |  | > 100 µM |  | > 100 µM |  | > 100 µM |  | > 100 µM |  | > 100 µM |  | > 100 µM |  | > 100 µM
15 | CC1=CC[C@@H]2C(C)(C)[C@@H](O)CC[C@@]2(C)[C@@H]1COc1ccc2ccc(=O)oc2c1 | 6.03 µM | 22 µM | 3.39 µM | 19.9 µM | 0.905 µM | 19.9 µM | 13.9 µM | 43.3 µM | 2.9 µM | 8.23 µM | 4.6 µM | 18.7 µM | 3.28 µM | 15.9 µM | 5.49 µM | 21.9 µM | 4.34 µM | 16 µM | 7.68 µM | 25.7 µM
16 | COC(=O)c1ccc2c(c1)c1c(C)c3cnccc3c(C)c1n2C | 0.0323 µM | 0.569 µM | 0.103 µM | 13.8 µM | 0.0348 µM | 0.166 µM | 0.125 µM | 0.884 µM | 0.247 µM | 3.54 µM |  |  | 0.0579 µM | 4.06 µM | 0.107 µM | 0.471 µM | 0.0652 µM | 1.15 µM | 0.178 µM | 0.674 µM
17 | O=C(N/N=C/c1ccc(F)cc1)c1[nH]c2ccc(I)cc2c1-c1ccccc1 | 0.45 µM | 32.5 µM | 0.383 µM |  | 0.409 µM |  | 1.34 µM | 6.82 µM | 2.15 µM | 22.9 µM | 0.325 µM | 1.35 µM | 0.541 µM | > 86.4 µM | 10.9 µM | > 100 µM | 0.229 µM | 0.531 µM | 0.399 µM | 5.04 µM
18 | C=C1C(O)C2C(=C(CC(C)C)C13CC3)C(=O)C(C)(C)C2OC (configuration not stated) |  |  | 86.6 µM | > 100 µM | > 100 µM | > 100 µM | > 100 µM | > 100 µM | > 100 µM | > 100 µM | 81.5 µM | > 100 µM | > 100 µM | > 100 µM | > 100 µM | > 100 µM | > 100 µM | > 100 µM | > 100 µM | > 100 µM
19 | COc1cccc2c(=O)c3c(sc12)c(NCCCN)nc1ccccc13 | 0.858 µM | 2.16 µM | 1.91 µM | 4.86 µM | 1.68 µM | 3.15 µM | 1.29 µM | 2.67 µM | 10.8 µM | 26.5 µM |  |  | 1.58 µM | 3.14 µM | 2 µM | 4.15 µM | 1.41 µM | 2.91 µM | 0.745 µM | 2.23 µM
20 | C=C(CNCCO)[C@@H]1CC[C@]2(CO)CC[C@]3(C)[C@H](CC[C@@H]4[C@@]5(C)CCC(NCCc6ccc(O)cc6)C(C)(C)[C@@H]5CC[C@]43C)[C@@H]12 (some centres not stated) | 1.64 µM | 3.55 µM | 0.5 µM | 2.68 µM | 1.46 µM | 2.81 µM | 0.854 µM | 2.17 µM | 1.55 µM | 3.23 µM |  |  | 1.38 µM | 3.07 µM | 1.66 µM | 3.18 µM | 1.82 µM | 3.73 µM | 1.18 µM | 2.63 µM
